Data on 25 compounds can be found in US20100298402A1, “STILBENE DERIVATIVES AS PSTAT3/IL-6 INHIBITORS” (ORCHID RESEARCH LABORATORIES LIMITED, priority 2007, published 2010).

SMILES strings stand for the structures.

The test system of assay [1] is HCT 116 (colon), NCIH460 (lung) and U251 (glioma) cell lines. Nature of the assay: Anti-cancer screen (MTT growth inhibition, 48 hours).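 Note: mean GI50 across the three cell lines.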 The assay is classed as cell-based. As to conditions: Homo sapiens; HCT 116, NCIH460 and U251 cell lines; MTT after 48 hours of incubation. On the procedure:
The experimental drugs were screened for anti-cancer activity in three cell lines using five concentrations for each compound. The cell lines—HCT 116 (colon), NCIH460 (lung) and U251 (glioma) were maintained in DMEM containing 10% fetal bovine serum. 96-well microtiter plates are inoculated with cells in 100 μL of cell suspension (5×10^4 cells/mL) for 24 hours at 37° C., 5% CO2, 95% air and 100% relative humidity. A separate plate with these cell lines is also inoculated to determine cell viability before the addition of the compounds (T0)
Following 24-hour incubation, test compounds were added to the 96 well plates. Each plate contains one of the above cell lines and the following samples in triplicate: five different dilutions (0.01, 0.1, 1, 10 and 100 μM) of four test compounds, appropriate dilutions of a cytotoxic standard and growth medium (untreated) wells. Test compounds were dissolved in DMSO to prepare 20 mM stock solutions on the day of drug addition and serial dilutions were carried out in complete growth medium at 2× strength, such that 100 μL added to the wells gave final concentrations (0.01, 0.1, 1, 10 and 100 μM) in the well. SAHA was used as the standard drug in these experiments.
For T0 measurement, 24 hours after seeding the cells, 20 μL of 3-(4,5-dimethyl-2-thiazolyl)-2,5-diphenyl-2H-tetrazolium (MTT) solution per well was added to the ‘T0’ plate and incubated for 3 hours at 37° C. in a CO2 incubator. The plate containing cells and test compounds was treated similarly after 48 hours of incubation. After 3 hours of MTT addition, well contents were aspirated carefully followed by addition of 150 μL DMSO per well. Plates were agitated to ensure dissolution of the formazan crystals in DMSO and absorbance was read at 570 nm (A570).
Percent growth (PG) is calculated relative to the control and zero measurement wells (T0) as follows:
PG values are plotted against drug concentration to derive the following: GI50 is the concentration required to decrease PG by 50% vs control; TGI is the concentration required to decrease PG by 100% vs control and LC50 is the concentration required to decrease PG by 50% vs T0. (Mosmann T. Rapid colorimetric assay for cellular growth and survival: application to proliferation and cytotoxicity assays. (J. Immunol. Methods. 1983, 65 (1-2), 55-63; Anne Monks et al); feasibility of high-flux anticancer drug screen using a diverse panel of cultured human tumor cell lines”. (JNCI, Vol. 83, No. 11, 1991). Results for growth inhibition of synthesized compounds are given in Table-1.

Assay [2] relates to IL-6 in supernatant of NCIH 460 cells. The assay can be described thus: Measuring IL-6 in culture supernatants (ELISA). Type of assay: cell-based. As to conditions: Homo sapiens, NCI-H460, 5 hours incubation.

By GI50 is commonly meant the concentration that inhibits growth by half. A higher GI50 goes with lower sensitivity of the cells. In general, inhibition refers to the percentage by which the read-out fell short of the control. A low value points to a response near the control.

`COC(=O)/C(=C/c1ccc(OC)cc1OC)c1ccc(OCC(O)CNCCOc2ccccc2OC)cc1` (stereo not shown) [Example 33, 2-{4-[3-(2-Methoxyphenoxyethylamino)-2-hydroxypropoxy]phenyl}-3-(2,4-dimethoxyphenyl)acrylic acid methyl ester] gave a GI50 in assay [1] of 2.6 µM. In assay [2], this compound came in with an inhibition at 10 µM of 61.2%.
On the same counts, the results for `COC(=O)/C(=C/c1ccc(SC)cc1)c1ccc(OCC(O)CNCCOc2ccccc2OC)cc1` (stereo not shown) [Example 23, 2-{4-[3-(2-Methoxyphenoxy-ethylamino)-2-hydroxy-propoxy]-phenyl}-3-(4-(methylthio)phenyl)-acrylic acid methyl ester] are 11.7 µM and 54.2%.
The compound `COC(=O)/C(=C/c1ccc(OCC(O)CNCc2ccc(OC)cc2OC)cc1)c1ccccc1` (stereo not shown) [Example 16, 3-{4-[3-(2,4-Dimethoxybenzylamino)-2-hydroxypropoxyl]phenyl}-2-phenyl acrylic acid methyl ester] registered a 50% growth inhibitory concentration (GI50) in assay [1] of 3.1 µM. The same compound returned an inhibition at 10 µM in assay [2] of 68%.
In assay [1], `COC(=O)/C(=C/c1cc(OC)c(OC)c(OC)c1)c1ccc(OCC(O)CNCc2ccc(OC(F)F)cc2)cc1` (stereo not shown) [Example 8, 2-{4-[3-(4-Difluoromethoxybenzylamino)-2-hydroxypropoxyl]phenyl}-3-(3,4,5-trimethoxyphenyl)acrylic acid methyl ester] registered a GI50 of 3.6 µM. Moreover, in assay [2], the inhibition at 10 µM stood at 44%.
On the same counts, the results for `COC(=O)/C(=C/c1ccccc1)c1ccc(OCC(O)CNCc2ccccc2)cc1` (stereo not shown) [Example 24, 2-{4-[3-(Benzylamino)-2-hydroxypropoxy]phenyl}-3-phenylacrylic acid methyl ester] are 15.5 µM and 0%.
On the same counts, the results for `COC(=O)/C(=C/c1ccc(OCC(O)CNCc2ccccc2)cc1)c1ccc(F)cc1` (stereo not shown) [Example 36, 3-{4-[3-(Benzylamino)-2-hydroxypropoxy]phenyl}-2-(4-fluorophenyl)acrylic acid methyl ester] are 12 µM and 27.9%.
On the same counts, the results for `COC(=O)/C(=C/c1ccc(OCC(O)CNCCOc2ccccc2OC)cc1)c1ccc(F)cc1` (stereo not shown) [Example 41, 3-{4-[3-(2-Methoxyphenoxyethylamino)-2-hydroxypropoxy]phenyl}-2-(4-fluorophenyl)acrylic acid methyl ester] are 11.4 µM and 68%.
`COC(=O)/C(=C/c1ccccc1)c1ccc(OCC(O)CNCCOc2ccccc2OC)cc1` (stereo not shown) [Example 25, 2-{4-[3-(2-Methoxyphenoxyethylamino)-2-hydroxypropoxy]phenyl}-3-phenylacrylic acid methyl ester] yielded a 50% growth inhibitory concentration (GI50) in assay [1] of 27.8 µM. Further, in assay [2], the inhibition at 10 µM is 20.5%.
On the same counts, the results for `COC(=O)/C(=C/c1ccc(F)cc1)c1ccc(OCC(O)CNCCOc2ccccc2OC)cc1` (stereo not shown) [Example 26, 2-{4-[3-(2-Methoxyphenoxyethylamino)-2-hydroxypropoxy]phenyl}-3-(4-fluorophenyl)acrylic acid methyl ester] are 12.1 µM and 36.2%.
On the same counts, the results for `COC(=O)/C(=C/c1ccc(Cl)cc1)c1ccc(OCC(O)CNCc2ccccc2)cc1` (stereo not shown) [Example 27, 2-{4-[3-(Benzylamino)-2-hydroxypropoxy]phenyl}-3-(4-chlorophenyl)acrylic acid methyl ester] are 6.5 µM and 32.7%.
On the same counts, the results for `COC(=O)/C(=C/c1ccc(F)c(F)c1)c1ccc(OCC(O)CNCc2ccc(OC)cc2OC)cc1` (stereo not shown) [Example 15, 2-{4-[3-(2,4-Dimethoxybenzylamino)-2-hydroxypropoxyl]phenyl}-3-(3,4-difluorophenyl)acrylic acid methyl ester] are 2.8 µM and 44%.
Consider `COC(=O)/C(=C/c1ccc(OCC(O)CNCc2ccc(OC)cc2OC)cc1)c1cccc(Cl)c1` (stereo not shown) [Example 47, 3-{4-[3-(2,4-Dimethoxybenzylamino)-2-hydroxypropoxy]phenyl}-2-(3-chlorophenyl)acrylic acid methyl ester], for which, in assay [1], halving of growth (GI50) required 1.3 µM. This compound showed an inhibition at 10 µM in assay [2] of 59%.
Compound `COC(=O)/C(=C/c1cc(OC)cc(OC)c1)c1ccc(OCC(O)CNCCOc2ccccc2OC)cc1` (stereo not shown) [Example 5, 2-{4-[3-(2-Methoxyphenoxyethylamino)-2-hydroxypropoxyl]phenyl}-3-(3,5-dimethoxyphenyl)acrylic acid methyl ester] returned a 50% growth inhibitory concentration (GI50) in assay [1] of 3.1 µM. In assay [2], this compound displayed an inhibition at 10 µM of 37%.
On the same counts, the results for `COC(=O)/C(=C/c1ccc(F)c(C)c1)c1ccc(OCC(O)CNCCOc2ccccc2OC)cc1` (stereo not shown) [Example 19, 2-{4-[3-(2-Methoxyphenoxyethylamino)-2-hydroxypropoxy]phenyl}-3-(4-fluoro-3-methylphenyl)acrylic acid methyl ester] are 4.9 µM and 15.9%.
On the same counts, the results for `COC(=O)/C(=C/c1ccc(OCC(O)CNCc2ccccc2)cc1)c1ccc(C)cc1` (stereo not shown) [Example 39, 3-{4-[3-(Benzylamino)-2-hydroxypropoxy]phenyl}-2-(4-methylphenyl)acrylic acid methyl ester] are 6.3 µM and 41.8%.
Consider `COC(=O)/C(=C/c1ccc(F)c(OC)c1)c1ccc(OCC(O)CNCc2ccc(OC)cc2OC)cc1` (stereo not shown) [Example 9, 2-{4-[3-(2,4-Dimethoxybenzylamino)-2-hydroxypropoxyl]phenyl}-3-(4-fluoro-3-methoxyphenyl)acrylic acid methyl ester], for which the concentration for 50% growth inhibition (GI50) in assay [1] was more than 100 µM. The inhibition at 10 µM in assay [2] was determined as 34%.
On the same counts, the results for `COC(=O)/C(=C/c1ccc(OCC(O)CNCCOc2ccccc2OC)cc1)c1cccc(Cl)c1` (stereo not shown) [Example 48, 3-{4-[3-(2-Methoxyphenoxyethylamino)-2-hydroxypropoxy]phenyl}-2-(3-chlorophenyl)acrylic acid methyl ester] are 1.6 µM and 9%.
Consider `COC(=O)/C(=C/c1ccc(OCC(O)CNCCOc2ccccc2OC)cc1)c1cccs1` (stereo not shown) [Example 34, 3-{4-[3-(2-Methoxyphenoxyethylamino)-2-hydroxypropoxy]phenyl}-2-(thiophen-2-yl)acrylic acid methyl ester], for which, in assay [1], halving of growth (GI50) required 18.7 µM. Besides, the inhibition at 10 µM in assay [2] came to 41.9%.
On the same counts, the results for `COC(=O)/C(=C/c1ccc(OCC(O)CNCc2ccccc2)cc1)c1ccccc1` (stereo not shown) [Example 44, 3-{4-[3-(Benzylamino)-2-hydroxypropoxy]phenyl}-2-phenylacrylic acid methyl ester] are 2.1 µM and 7.7%.
On the same counts, the results for `COC(=O)/C(=C/c1ccc(SC)cc1)c1ccc(OCC(O)CNCc2ccc(OC)cc2OC)cc1` (stereo not shown) [Example 28, 2-{4-[3-(2,4-Dimethoxybenzylamino)-2-hydroxypropoxy]phenyl}-3-(4-(methylthio)phenyl)acrylic acid methyl ester] are 1.3 µM and 78.5%.
In assay [1], `COC(=O)/C(=C/c1ccc(OCC(O)CNCc2ccc(OC)cc2OC)cc1)c1ccc(OC)cc1` (stereo not shown) [Example 12, 3-{4-[3-(2,4-Dimethoxybenzylamino)-2-hydroxypropoxyl]phenyl}-2-(4-methoxyphenyl)acrylic acid methyl ester] came in with a GI50 of 3 µM. Further, the inhibition at 10 µM in assay [2] amounted to 55%.
On the same counts, the results for `COC(=O)/C(=C/c1ccc(Cl)cc1)c1ccc(OCC(O)CNCc2ccc(OC)cc2OC)cc1` (stereo not shown) [Example 22, 2-{4-[3-(2,4-Dimethoxybenzylamino)-2-hydroxypropoxy]phenyl}-3-(4-chlorophenyl)acrylic acid methyl ester] are 16.1 µM and 59.8%.
On the same counts, the results for `COC(=O)/C(=C/c1ccc(OCC(O)CNCc2ccccc2)cc1)c1ccc(OC)cc1` (stereo not shown) [Example 30, 3-{4-[3-(Benzylamino)-2-hydroxypropoxy]phenyl}-2-(4-(methoxy)phenyl)acrylic acid methyl ester] are 1.4 µM and 27.8%.
On the same counts, the results for `COC(=O)/C(=C/c1ccccc1OCC(O)CNCc1ccc(OC)cc1OC)c1ccc(OC)cc1` (stereo not shown) [Example 45, 3-{2-[3-(2,4-Dimethoxybenzylamino)-2-hydroxypropoxy]phenyl}-2-(4-methoxyphenyl)acrylic acid methyl ester] are 1.2 µM and 56%.
In assay [1], `COC(=O)/C(=C/c1cc(OC)cc(OC)c1)c1ccc(OCC(O)CNCc2ccc(OC(F)(F)F)cc2)cc1` (stereo not shown) [Example 4] had a GI50 of 32.4 µM. That is a double-digit micromolar value.
